# Measurements: US20170143748A1, “ANTI-TUMOR PHARMACEUTICAL APPLICATION OF PENTACYCLIC TRITERPENE SAPONIN COMPOUNDS OF SZECHUAN MELANDIUM ROOT” (priority 2014, published 2017)
# Columns and labels:
# HepG2 = experiment: MTT inhibition of tumor cells in vitro (Example 3); type: cell-based, Human; conditions: 40 μg/mL; for Inhibition rate, HepG2: 48 hours
# A875 = experiment: MTT inhibition of tumor cells in vitro (Example 3); type: cell-based, Human; conditions: 48 hours; for Inhibition rate, A875: 40 μg/mL
# Method: (§1) Human resources tumor cell line […], […], HT29, MCF-7 and A875 were provided by Cancer Hospital, Chinese Academy of Medical Sciences.
# (§2) Cells were passaged every 2 or 3 days, and all the experiments were carried out on exponentially growing cells.
# (§3) All cells were cultured in a humidified atmosphere (5% CO2 and […]), and passaged every 2 or 3 days. Cells were harvested on exponentially growing phase, and cell suspension was prepared with 2×10^4 cells/mL, added with 100 μL per well of 96-well plates, and cultured for 24 h in incubator. 100 μL medium without cells was added per well as blank group.
# (§4) Compound (1), (2), (3), (4), (7) or (8) was dissolved in DMSO respectively, and diluted with 1640 medium at a final concentration of 400 μg/mL, so as to that of the Cisplatin. Cells were divided into 9 groups, they were blank group, model group, Compound (1), (2), (3), (4), (7) and (8) groups, and Cisplatin group as the positive one, 6 wells per group.
# (§5) Before drug administration, supernatant of each well was removed and fresh 1640 medium was added, 180 μL per well. Compounds and Cisplatin were added with 20 μL per well respectively at a final concentration of 40 μg/mL. Wells of blank and model groups were added with 0.5% DMSO, 20 μL per well. 48 hours later, 20 μL MTT was added per well and continued to culture for 4 hours, then the supernatant was replaced carefully and DMSO was added with 150 μL per well to end the experiment. The 96-well plates were shaken for 10 mins and read the absorbance at 490 nm. The Inhibition rate was calculated.
# (§6) Inhibition rate=[(ODmodel−ODblank)−(ODdrugs−ODblank)]/(ODmodel−ODblank)×100%
# (§7) The MTT experiment was repeated three times.
# MCF-7 = experiment: MTT inhibition of tumor cells in vitro (Example 3); type: cell-based, Human; conditions: 48 hours; for Inhibition rate, MCF-7: 40 μg/mL
# Method: as §1, §2, §3, §4, §5, §6, §7
# HT29 = experiment: MTT inhibition of tumor cells in vitro (Example 3); type: cell-based, Human; conditions: 40 μg/mL; for Inhibition rate, HT29: 48 hours
# Method: as §1, §2, §3, §4, §5, §6, §7
# BGC823 = experiment: MTT inhibition of tumor cells in vitro (Example 3); type: cell-based, Human; conditions: 40 μg/mL; for Inhibition rate, BGC823: 48 hours
# Method: as §1, §2, §3, §4, §5, §6, §7
# HT29 human colon cancer = experiment: Anti-HT29 human colon cancer in BALB/c (nu/nu) nude mice; type: in vivo; parameters: body weight of HT29-bearing nude mice / tumor volume of HT29-bearing nude mice / Tumor mass: unit not given here; conditions: for body weight of HT29-bearing nude mice / tumor volume of HT29-bearing nude mice: mg/kg BW: total saponins 1.5, Compound 1, combination 1 & 19, PTX 20, Sc
# Method: Human resources Colon cancer cell line HT29 was cultured in the same condition as the experiment 4. […] Mice were randomly assigned into 7 groups: […] The body weight and the tumor volume were measured and recorded weekly. The tumor volume was calculated according to the formula below. […] The tumors were departed and weighed.
compound,measurement,setting,value
"CCCCOC(=O)C1OC(O[C@H]2CC[C@]3(C)[C@H]4CC=C5[C@@H]6CC(C)(C)CC[C@]6(C(=O)OC6OC(C)C(OC(=O)/C=C\c7ccc(OC)cc7)C(OC(C)=O)C6OC6OC(C)C(O)C(O)C6O)[C@H](O)C[C@@]5(C)[C@]4(C)CC[C@H]3[C@]2(C)C=O)C(OC2OC(CO)C(O)C(O)C2O)C(OC2OCC(O)C(O)C2O)C1O (stereo partly drawn) [Compound (8), sinocrassuloside XIII]","Inhibition rate, HepG2",HepG2,41.25 ± 1.27%
same,"Inhibition rate, A875",A875,55.32 ± 13.35%
same,"Inhibition rate, MCF-7",MCF-7,61.32 ± 11.67%
same,"Inhibition rate, HT29",HT29,77.22 ± 6.17%
same,"Inhibition rate, BGC823",BGC823,56.00 ± 7.90%
sinocrassuloside XII [Compound (7)],"Inhibition rate, HepG2",HepG2,21.83 ± 1.53%
same,"Inhibition rate, A875",A875,55.64 ± 9.88%
same,"Inhibition rate, MCF-7",MCF-7,58.12 ± 6.26%
same,"Inhibition rate, HT29",HT29,62.67 ± 3.12%
same,"Inhibition rate, BGC823",BGC823,77.08 ± 5.73%
"CC(=O)O[C@H]1C(=O)[C@@]2(C)[C@H]([C@H](OC(=O)c3ccccc3)[C@]3(O)C[C@H](OC(=O)[C@H](O)[C@@H](NC(=O)c4ccccc4)c4ccccc4)C(C)=C1C3(C)C)[C@]1(OC(C)=O)CO[C@@H]1C[C@@H]2O [PTX, Paclitaxel, reference compound]",body weight of HT29-bearing nude mice,HT29 human colon cancer; 0 W,20.60 ± 1.32
same,body weight of HT29-bearing nude mice,HT29 human colon cancer; 1 W,20.30 ± 1.68
same,tumor volume of HT29-bearing nude mice,HT29 human colon cancer; 1 W,943.55 ± 516.62
same,body weight of HT29-bearing nude mice,HT29 human colon cancer; 2 W,19.80 ± 1.77
same,tumor volume of HT29-bearing nude mice,HT29 human colon cancer; 2 W,996.66 ± 347.05
same,body weight of HT29-bearing nude mice,HT29 human colon cancer; 3 W,19.20 ± 1.37
same,tumor volume of HT29-bearing nude mice,HT29 human colon cancer; 3 W,801.38 ± 259.34
same,Inhibition rate,"HT29 human colon cancer; HT29-bearing nude mice, after 3 weeks, from average tumor mass vs model",60.81%
same,Tumor index,"HT29 human colon cancer; HT29-bearing nude mice, after 3 weeks, tumor mass/body weight",0.06 ± 0.03
"COC(=O)C1CC(O[C@H]2CC[C@]3(C)[C@H]4C=CC5[C@@H]6CC(C)(C)CC[C@]6(C(=O)OC6OC(C)C(OC(=O)/C=C\c7ccc(C)cc7)C(OC(C)=O)C6OC6CC(C)C(O)C(O)C6O)[C@H](O)C[C@@]5(C)[C@]4(C)CC[C@H]3[C@]2(C)C=O)C(OC2OC(CO)C(O)C(O)C2O)C(OC2OCC(O)C(O)C2O)C1O (stereo partly drawn) [Compound (4), sinocrassuloside IV]",inhibition at 40 µg/mL,"HepG2; Homo sapiens, HepG2, 48 h, read-out: Inhibition rate, HepG2",65.7 ± 1.05%
same,inhibition at 40 µg/mL,"A875; Homo sapiens, A875, 40 μg/mL, read-out: Inhibition rate, A875",70.5 ± 9.76%
same,inhibition at 40 µg/mL,"MCF-7; Homo sapiens, MCF7, 40 μg/mL, read-out: Inhibition rate, MCF-7",56.2 ± 1.96%
same,inhibition at 40 µg/mL,"HT29; Homo sapiens, HT-29, 48 h, read-out: Inhibition rate, HT29",90.6 ± 5.6%
same,inhibition at 40 µg/mL,"BGC823; Homo sapiens, BGC-823, 48 h, read-out: Inhibition rate, BGC823",92.4 ± 6.24%
